Reference: patent US20050014780A1, “Process for preparing 5-sulfonamido-8-hydroxy-1,6-naphthyridine-7-carboxamides” (priority 2001, published 2005)

Assays:
[1] = oral absorption and pharmacokinetics in animal models; format: in vivo; settings: compared to Compound 15 per se
[2] = target: recombinant integrase (HIV integrase) (Human immunodeficiency virus type 1 group M subtype B, UniProt P04585)
Description: The present invention includes the preparation of naphthyridine carboxamides of Formula (VIII) by the process set forth above in the Summary of the Invention. […] The strand transfer assay is described in Example 193 of WO 02/30930.

SMILES: O=C(NCc1ccc(F)cc1)c1nc(N2CCCCS2(=O)=O)c2cccnc2c1[O-].[Na+] [Na salt of Compound 15, Sodium salt of 5-(1,1-Dioxido-1,2-thiazinan-2-yl)-N-(4-fluorobenzyl)-8-hydroxy-1,6-naphthyridine-7-carboxamide]
- oral absorption [1]: superior oral absorption
- pharmacokinetics [1]: improved pharmacokinetics

SMILES: O=C(NCc1ccc(F)cc1)c1nc(N2CCCCS2(=O)=O)c2cccnc2c1O [Compound 15, 5-(1,1-dioxido-1,2-thiazinan-2-yl)-N-(4-fluorobenzyl)-8-hydroxy-1,6-naphthyridine-7-carboxamide]
- HIV integrase inhibition (in words) [2]: potent HIV integrase inhibitor
